Test results as given in paper PMC8288134, “Synthesis, potential antitumor activity, cell cycle analysis, and multitarget mechanisms of novel hydrazones incorporating a 4-methylsulfonylbenzene scaffold: a molecular docking study” (Journal of Enzyme Inhibition and Medicinal Chemistry, 2021).
Where two headings read alike, the source gives them in different places.

Experiments:
[1] = tested on: HL-60(TB); experiment: cells; assay type: cell-based, human; details: for inhibition at 10 µM: HL-60, HL-60(TB), read-out: Growth inhibition percentage (GI%)
[2] = tested on: EKVX; experiment: NCI antitumor screen (SRB); assay type: cell-based; details: Homo sapiens; for inhibition at 10 µM: one dose 10 µM, read-out: Growth inhibition percentage (GI%)
[3] = tested on: NCI-H522; experiment: NCI antitumor screen (SRB); assay type: cell-based; details: Homo sapiens
[4] = tested on: HCT-15; experiment: NCI antitumor screen (SRB); assay type: cell-based; details: Homo sapiens; for inhibition at 10 µM: one dose 10 µM, read-out: Growth inhibition percentage (GI%)
[5] = tested on: KM12; experiment: NCI antitumor screen (SRB); assay type: cell-based; details: Homo sapiens; for inhibition at 10 µM: one dose 10 µM, read-out: Growth inhibition percentage (GI%)
[6] = tested on: SF-295; experiment: NCI antitumor screen (SRB); assay type: cell-based; details: Homo sapiens; for inhibition at 10 µM: one dose 10 µM, read-out: Growth inhibition percentage (GI%)
[7] = tested on: SF-539; experiment: NCI antitumor screen (SRB); assay type: cell-based; details: Homo sapiens; for inhibition at 10 µM: one dose 10 µM, read-out: Growth inhibition percentage (GI%)
[8] = tested on: U251; experiment: NCI antitumor screen (SRB); assay type: cell-based; details: Homo sapiens; for inhibition at 10 µM: U-251, one dose 10 µM, read-out: Growth inhibition percentage (GI%)
[9] = tested on: MALME-3M; experiment: NCI antitumor screen (SRB); assay type: cell-based; details: Homo sapiens; for inhibition at 10 µM: one dose 10 µM, read-out: Growth inhibition percentage (GI%)
[10] = tested on: SK-MEL-2; experiment: NCI antitumor screen (SRB); assay type: cell-based; details: Homo sapiens
[11] = tested on: UACC-257; experiment: NCI antitumor screen (SRB); assay type: cell-based, human; details: for inhibition at 10 µM: read-out: Growth inhibition percentage (GI%)
[12] = tested on: IGROV1; experiment: NCI antitumor screen (SRB); assay type: cell-based; details: Homo sapiens; for inhibition at 10 µM: IGROV-1, one dose 10 µM, read-out: Growth inhibition percentage (GI%)
[13] = tested on: NCI/ADR-RES; experiment: NCI antitumor screen (SRB); assay type: cell-based; details: Homo sapiens; for inhibition at 10 µM: one dose 10 µM, read-out: Growth inhibition percentage (GI%)
[14] = tested on: SK-OV-3; experiment: NCI antitumor screen (SRB); assay type: cell-based; details: Homo sapiens; for inhibition at 10 µM: one dose 10 µM, read-out: Growth inhibition percentage (GI%)
[15] = tested on: TK-10; experiment: NCI antitumor screen (SRB); assay type: cell-based; details: Homo sapiens, one dose 10 µM, read-out: Growth inhibition percentage (GI%)
[16] = tested on: HL60 cells; experiment: Cell cycle analysis (PI, flow cytometry); assay type: cell-based, human; details: HL60, 10.0 µM, 24 h
Experimental: Antitumor agents can induce apoptosis by activating signalling pathways, leading to G2/M phase arrest[73]^,[74]. Flow cytometry is used to measure cell growth in different cell cycle phases (pre-G1, G1, S, and G2/M)[73]^,[74]. […]. We used the solvent DMSO as a negative control. Briefly, we incubated HL60 cells with 10 µM compounds 6, 9, 16, and 20 for 24 h. Compounds 6, 9, 16, and 20 interfered with the normal cell cycle of HL60 cells. […] […].
Cell cycle analysis was carried out similar to our previous report using the Leukaemia HL-60 cell line stained with the DNA fluorochrome PI and analysed by FACSCalibur flow cytometer[40]^,[74].
Using a method similar to that of our previous report, cell cycle analysis was carried out using Leukemia HL-60 cell line, stained with the DNA fluorochrome PI, and analyzed by FACSCalibur flow cytometer. Leukemia HL-60 cell was seeded at a density of 2 × 10^5 cells/well and incubated for 24 h in six-well plates. Fetal bovine serum (10%) was added, and the cells were incubated at 37°C in an atmosphere of 5% CO2. The medium was replaced with 1% (v/v) dimethyl sulfoxide (DMSO), containing 10.0 μM of compound 9. […]
Afterward, […]
the samples were analyzed using a FACSCalibur flow cytometer. […]
(AA) to PGH2. […]

[17] = NCI-H522, read-out: Growth inhibition percentage (GI%)
[18] = SK-MEL-2, read-out: Growth inhibition percentage (GI%)
[19] = Homo sapiens, UACC-257, one dose 10 µM
[20] = five concentrations 0.01-100 µM

Row | SMILES | inhibition at 10 µM ([1]; Homo sapiens, one dose 10 µM) | inhibition at 10 µM [2] | inhibition at 10 µM [3, 17] | inhibition at 10 µM [4] | inhibition at 10 µM [5] | inhibition at 10 µM [6] | inhibition at 10 µM [7] | inhibition at 10 µM [8] | inhibition at 10 µM [9] | inhibition at 10 µM [10, 18] | inhibition at 10 µM [11, 19] | inhibition at 10 µM [12] | inhibition at 10 µM [13] | inhibition at 10 µM [14] | inhibition at 10 µM [15] | %G0-G1 [16] | %G2-M [16] | %Pre-G1 [16] | %S [16] | further results
1 | CS(=O)(=O)c1ccc(C(=O)NN=Cc2cccc3ccccc23)cc1 [Compound 6, 4-(Methylsulfonyl)-N'-(naphthalen-1-ylmethylene)benzohydrazide] | 62.5% | 12.6% | 95.5% | 50.2% | 49.2% | 24% | 10.7% | 23.7% | 30.3% | 52.3% | 58.9% | 36.8% | 26.5% | 21.9% | 14.9% | 48.31% | 23.27% | 12.57% | 28.42% | –
2 | CCN(CC)c1ccc(/C=N/NC(=O)c2ccc(S(C)(=O)=O)cc2)c(O)c1 [Compound 20] | 100% | 84.5% | – | 71.5% | 74.1% | 78.6% | 96% | 79.4% | 86% | – | – | 78.8% | 82.2% | 61% | 69.5% | 36.28% | 34.29% | 24.31% | 29.43% | Growth inhibition percentage (GI%) ([1]; HL-60(TB), one dose 10 µM): >100%; GI50 ([1]; Homo sapiens, HL-60(TB), five concentrations 0.01-100 µM): 164 nM; GI50 [2, 20]: 162 nM; GI50 ([3]; NCI-H522, five concentrations 0.01-100 µM): 395 nM; inhibition at 10 µM ([3]; NCI-H522, one dose 10 µM, read-out: Growth inhibition percentage (GI%)): 90.1%; GI50 [4, 20]: 92 nM; GI50 [5, 20]: 404 nM; GI50 [6, 20]: 200 nM; GI50 [7, 20]: 244 nM; GI50 ([8]; U-251, five concentrations 0.01-100 µM): 137 nM; GI50 [9, 20]: 440 nM; GI50 ([10]; SK-MEL-2, five concentrations 0.01-100 µM): 307 nM; inhibition at 10 µM ([10]; SK-MEL-2, one dose 10 µM, read-out: Growth inhibition percentage (GI%)): 80.5%; inhibition at 10 µM ([11]; Homo sapiens, UACC-257, UACC-257, one dose 10 µM): 100%; GI50 ([11]; Homo sapiens, UACC-257, five concentrations 0.01-100 µM): 340 nM; Growth inhibition percentage (GI%) ([11]; UACC-257, one dose 10 µM): >100%; GI50 ([12]; IGROV-1, five concentrations 0.01-100 µM): 196 nM; GI50 [13, 20]: 324 nM; GI50 [14, 20]: 251 nM
3 | Cc1ccc(C=NNC(=O)c2ccc(S(C)(=O)=O)cc2)cc1 [Compound 9, N'-(4-Methylbenzylidene)-4-(methylsulfonyl)benzohydrazide] | 24.3% | < 10% | 53.9% | 16.3% | 25.1% | < 10% | < 10% | 13.7% | 15.2% | 19.8% | 28.4% | 12.3% | 14.6% | < 10% | < 10% | 43.15% | 29.44% | 16.89% | 27.41% | –
